“And” between values parts separate entries of the source, which are not always exact repeats. Equal entries are not always repeated.
Tests used:
COX2 N181A = target: T1, COX2 N181A (Homo sapiens, UniProt P35354, N181A); experiment: filter binding assay of [14C] N-AS to COX2; conditions: 0.2 uM, replicates
T1 construct: His (N); made in house
T1 sequence (P35354 18-604 N181A): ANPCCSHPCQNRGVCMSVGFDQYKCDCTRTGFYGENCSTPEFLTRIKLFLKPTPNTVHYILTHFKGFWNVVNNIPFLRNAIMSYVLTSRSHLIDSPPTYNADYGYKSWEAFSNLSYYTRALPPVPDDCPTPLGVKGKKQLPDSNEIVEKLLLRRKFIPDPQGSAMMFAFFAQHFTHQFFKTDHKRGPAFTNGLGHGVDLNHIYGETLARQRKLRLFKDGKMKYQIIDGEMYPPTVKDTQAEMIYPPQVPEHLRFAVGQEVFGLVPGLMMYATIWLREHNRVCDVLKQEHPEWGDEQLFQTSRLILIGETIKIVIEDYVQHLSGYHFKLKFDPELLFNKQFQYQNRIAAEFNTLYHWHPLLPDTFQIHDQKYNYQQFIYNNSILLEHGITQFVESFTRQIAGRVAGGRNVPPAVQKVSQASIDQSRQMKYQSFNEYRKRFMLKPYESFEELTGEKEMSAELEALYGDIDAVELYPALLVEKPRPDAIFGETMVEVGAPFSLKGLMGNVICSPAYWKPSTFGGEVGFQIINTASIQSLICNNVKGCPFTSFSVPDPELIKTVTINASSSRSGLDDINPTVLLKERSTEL

APP/PS1 mice = experiment: western blot of synaptophysin, MAP2, synapsin1, PSD95 in cortex (Supplementary Fig 7a-d); format: in vivo, mouse; set-up: synaptophysin (western blot, cortex) / MAP2 (western blot, cortex) / synapsin1 (western blot, cortex): scale not given here
Experimental: Samples were lysed in RIPA buffer (Cell signaling Technologies), then subjected to SDS-PAGE and transferred to a nitrocellulose membrane. Membranes were blocked with 5% milk, incubated with primary antibody and then incubated with the appropriate horseradish peroxidase-conjugated secondary antibody. […] We performed densitometric quantification using the ImageJ software (National Institutes of Health). Images have been cropped for presentation.
Transgenic mouse lines over-expressing the hAPP695swe (APP) and presenilin-1M146V (PS1) mutations were originated from GlaxoSmithKline (Harlow, UK)[32] and maintained as described previously. We purchased 5×FAD mice from Jackson Labs (Stock number. 34840-JAX). Because APP/PS1 and 5xFAD mice show sex differences in disease progression, we used only male mice. To examine possible therapeutic effect of N-AS and aspirin in APP/PS1 mice, the N-AS (30 mg kg^−1, Sigma-Aldrich, 01912) was injected daily s.c. for 8 weeks to 7-months-old APP/PS1 mice until the age of 9 months, and aspirin (2 mg kg^−1, Sigma-Aldrich, A5376)[33] was administrated orally to 7-months-old APP/PS1 mice for 8 weeks. Also, to confirm possible therapeutic efficacy of N-AS in 5×FAD, the N-AS (30 mg kg^−1, Sigma-Aldrich, 01912) was injected daily s.c. for 4 weeks to 3-months-old 5×FAD mice until the age of 4 months. Block randomization method was used to allocate the animals to experimental groups. To eliminate the bias, we were blinded in experimental progress such as data collection and data analysis. Mice were housed at temperature of 22 °C and a 12 h day/12 h night cycle with free access to tap water and food pellets. All protocols were approved by the Kyungpook National University Institutional Animal Care and Use Committee.

neuron = experiment: sphingosine level in primary cells (UPLC); format: cell-based, C57BL/6 mice; conditions: Ab 10mM, replicates
Experimental: To confirm the generation and roles of N-AS in neurons, cells from E18 C57BL/6 mice were prepared as previously described. Cortices were dissected and then dissociated followed by incubation in papain (Worthington) at 37 °C for 15 min. Neurons were plated on poly-L-lysine-coated coverslips with neuronal culture medium, serum-free Neurobasal medium (Gibco) containing 2% B27 supplements (Gibco), 1 mM Glutamax supplement (Gibco), and 100 U ml^−1 streptomycin/ 100 U ml^−1 penicillin (Gibco) at 37 °C in a humidified atmosphere of 5% CO2. […] Primary astrocyte cultures were prepared from C57BL/6 mice as described previously. In brief, after removal of the meninges, postnatal day 7 (P7) mouse brain tissues were minced and incubated in a rocking water bath at 37 °C for 30 min in the presence of 0.25% trypsin-EDTA (Sigma-Aldrich). […] The human microglia treated with Aβ 1–42 and/or zileuton was incubated with N-AS (2.5 μM, 2 h, Sigma-Aldrich, 01912), and were analyzed for the generation and roles of N-AS.
To quantify the sphingosine levels, the dried lipid extract was resuspended in 0.2% Igepal CA-630. […] The fluorescent sphingosine was monitored using a model 474 scanning fluorescence detector (Waters). Quantification of the sphingosine was calculated from sphingosine calibration curves using the Waters Millennium software.

Molecule | binding velocity (Vbinding) (COX2 N181A) | synaptophysin (western blot, cortex) (APP/PS1 mice; APP/PS1 + N-AS, sFig 7a (sheet untitled)) | MAP2 (western blot, cortex) (APP/PS1 mice; APP/PS1 + N-AS, sFig 7b (sheet untitled)) | synapsin1 (western blot, cortex) (APP/PS1 mice; APP/PS1 + N-AS, sFig 7c (sheet untitled)) | PSD95 (western blot, cortex) (APP/PS1 mice; APP/PS1 + N-AS, sFig 7d (sheet untitled)) | expression levels of synaptophysin, MAP2, synapsin1, PSD95 (APP/PS1 mice; N-AS vs APP/PS1) | sphingosine (Fig 3f) (neuron)
CCCCCCCCCCCCC/C=C/[C@@H](O)[C@H](CO)NC(C)=O [N-AS, N-((2S,3R,E)-1,3-Dihydroxyoctadec-4-en-2-yl)acetamide] | 0.489 nM/min and 0.461 nM/min and 0.240 nM/min | 2.567 and 3.1595 and 2.9069 and 1.677 and 2.527 and 2.054 | 0.7541 and 0.8231 and 0.7626 and 0.741 and 0.7343 and 0.8145 | 0.7506 and 0.7227 and 0.685 and 0.6922 and 0.6413 | 0.7284 and 0.7208 and 0.6479 and 0.6548 and 0.6748 and 0.6067 | restored | –
Ab: Aβ 1–42 (Invitrogen, 03112) used to induce an AD environment in cells | – | – | – | – | – | – | 0.1262 and 0.1156 and 0.1288 and 0.1301 and 0.1222 and 0.1295
